Bridge positions count the residues as written; N and C are the ends. Square brackets hold non-standard residues; d marks the D form. Peptide text beside a SMILES is read from it. Lys(iPr) = CC(C)NCCCC[C@H](N)C(=O)O; Orn(iPr) = CC(C)NCCC[C@H](N)C(=O)O; Dab = NCC[C@H](N)C(=O)O
Tests used:
[1] = Drug loading calculations via maintenance dose rate (rate of infusion); conditions: CLiv-mouse values scaled by 0.127 (GFR human/GFR mouse)
Protocol: The drug load for an implant comprising a peptide of the invention was calculated following the basic principles in pharmacokinetics (see also J. Gabrielsson, D. Weiner, "Pharmacokinetics and Pharmaco-dynamics Data Analysis: Concepts and Applications", 4th edition, Swedish Pharmaceutical Press, Stockholm, Sweden, 2006) whereby the maintainance dose rate (rate of infusion, Rin) can be defined as the rate at which a drug is to be administered to reach a steady state of a certain dose in the plasma. The maintainance dose rate can be expressed using the correlation Rin [g/(h*kg)] = CLiv[L/(h*kg)] x Css,eff [g/L], wherein CLiv is the clearance (i.v. - admin.) and Css,eff the effective concentration of the drug in the plasma at steady state considering an efficacy margin A: Css,eff [g/L] = A x (IC50/fu) x MW [(mol/L)*(g/mol)]. Therefore, the total amount of a drug loaded into an implant providing for a constant effective concentration of that drug in the plasma for a certain period of time in a subject of a certain body weight can be calculated by applying the following correlation: Drugload [g/subject] = Rin [g/(h*kg)] x duration[h] x BW [kg/subject]. [formula]
Further pre-conditions are an efficacy margin of A = 3, a study duration of 672 h (28 days) and a body weight of a human suject of 70 kg. The glomerular filtration rate (GFR) which mainly influences the clearance of the peptides is highly dependent on the species. In general, the GFR of humans is averaged to be 107 mL/(h*kg) compared to the GFR of mouse being 840 mL/(h*kg). Therefore, the CLiv-mouse values indicated in Table 5b were allometrically scaled by 107 mL/(h*kg)/840 mL/(h*kg) = 0.127 before employed in the above described correlations.

CXCR4 receptor = biological target: T1, CXCR4 receptor (Homo sapiens, UniProt P61073); experiment: Chemotactic assay (cell migration assay): response of Namalwa cells to an SDF-1 gradient; format: cell-based
T1 construct: Namalwa cells (CXCR4 natively expressing non-adherent cells, ATCC CRL-1432); host or cells: Namalwa cells
Protocol: Namalwa cells (CXCR4 natively expressing non-adherent cells, ATCC CRL-1432) were cultured in RPMI1640 plus 10% FBS, and pen/strept. HELA cells were maintained in RPMI1640 plus 10% FBS, pen/strept and 2 mM L-glutamine. Cos-7 cells were grown in DMEM medium with […] glucose supplemented with 10% FCS, pen/strept and 2 mM L-glutamine. All cell lines were grown at 37 °C at 5% CO2. Cell media, media supplements, PBS-buffer, HEPES, antibiotic/antimycotic, pen/strept, non essential amino acid, L-glutamine, β-mercaptoethanol and sera were purchased from Gibco (Pailsey, UK). All fine chemicals were supplied by Merck (Darmstadt, Germany).
The chemotactic response of Namalwa cells (ATCC CRL-1432) to a gradient of stromal cell-derived factor 1α (SDF-1) was measured using a modified Boyden chamber chemotaxis system (ChemoTx; Neuroprobe). In this system, the upper chamber of each well is separated from the lower chamber containing the chemoattractant SDF-1 by a polycarbonate membrane (5µm pore size). A circular area of that membrane in the region that covers each lower well is enclosed by a hydrophobic mask to retain the cell suspension within this area. The system was prepared by loading the bottom wells with aliquots of […] chemotaxis medium (RPMI 1640 without Phenol red + 0.5% BSA) comprising either appropriate serial dilutions of peptides or no peptide at all in combination with SDF-1 (0.9 nM) or without the chemoattractant. The membrane was placed over the bottom wells, and aliquots of 50 µL of a suspension of Namalwa cells (3.6 x 10^6 cells/mL) in chemotaxis medium, premixed with chemotaxis medium comprising either appropriate serial dilutions of peptides or no peptide at all, was delivered onto each of the hydrophobically limited regions of the upper surface of the membrane. The cells were allowed to migrate into the bottom chamber for 5 h at 37 °C in 5% CO2. After this period, the membrane was removed and its topside was carefully wiped and washed with PBS to eliminate non-migrated cells. Migrated cells were transferred using a "funnel" adaptor to a receiving 96-well plate and the cell number was determined by using the CyQuant™ NF cell proliferation assay (Invitrogen) based on the measurement of cellular DNA content via fluorescent dye binding. Following the manufacturer's directions, 50 µL of CyQuant™ dye reagent/HBSS buffer (1/500 [v/v]) were added to each well of the above mentioned receiving 96-well plate. After incubation for 0.5 h at room temperature the plate was sealed and the fluorescence intensity of each sample was measured by using a Wallac 1420 VICTOR^2™ plate reader (PerkinElmer) with excitation at 485 nm and emission detection at 535 nm. Finally, the data were normalized by using the controls and IC50-values were determined using GraphPad Prism™ (GraphPad) by fitting a logarithmic curve to the averaged datapoints.

[2] = Plasma stability, human plasma; format: in vitro ADME; conditions: human plasma, 37° C, last time point 1440 min
Protocol: (§1) The stability of the peptides in human and mouse plasma was determined by applying the following method: 346.5 µL/deep well of freshly thawed human plasma (Basler Blutspende-dienst) and mouse plasma (Harlan Sera-Lab, UK), respectively, were spiked with 3.5 µL/well of compound dissolved in DMSO/H2O (90/10 [v/v], 1 mM, triplicate) and incubated at 37° C. At t = 0, 15, 30, 60, 120, 240 and 1440 min aliquots of 50 µL were transferred to filtration plate wells containing 150 µL/well of 2% formic acid in acetonitrile. Following shaking for 2 min the occurred suspensions were filtrated by vacuum. 100 µL of each filtrate were transferred to a propylene microtiter plate and dried under N2. The residual solids were reconstituted by adding 100 µL/well of water/acetonitrile, 95/5 (v/v) + 0.2% formic acid and analyzed by LC/MS as follows: Column: Waters, XBridge C18, mobile phases: (A) water + 0.1% formic acid and (B) acetonitrile/water, 95/5 (v/v) + 0.1% formic acid, gradient: 5%-100% (B) in 1.8 minutes, electrospray ionization, MRM detection (triple quadrupole). The peak areas were determined and triplicate values are averaged. The stability is expressed in percent of the initial value at t = 0. (tx/t0 x 100). By using the TREND function of EXCEL (Microsoft Office 2003) T1/2 were determined.

[3] = Plasma stability, mouse plasma; format: in vitro ADME; conditions: mouse plasma, 37° C, last time point 1440 min
Protocol: as §1

[4] = system: human red blood cells (hRBC); experiment: Hemolysis; format: cell-based; conditions: 100 µM, 20% hRBC, 1 h at 37°C
Protocol: The peptides were tested for their hemolytic activity against human red blood cells (hRBC). Fresh hRBC were washed four times with phosphate buffered saline (PBS) and centrifuged for 10 min at 3000 x g. Compounds (100 µM) were incubated with 20% hRBC (v/v) for 1 h at 37°C and shaking at 300 rpm. The final erythrocyte concentration was approximately 0.9 x 10^9 cells/mL. A value of 0% and 100% cell lysis, respectively, was determined by incubation of hRBC in the presence of PBS containing 0.001% acetic acid and 2.5% Triton X-100 in H2O respectively. The samples were centrifuged, the supernatants were 8-fold diluted in PBS buffer and the optical densities (OD) were measured at 540 nm. The 100% lyses value (OD540H2O) gave an OD540 of approximately 0.5-1.0. Percent hemolysis was calculated as follows: (OD540peptide/OD540H2O) x 100%. [formula]

T1 sequence (P61073 whole entry): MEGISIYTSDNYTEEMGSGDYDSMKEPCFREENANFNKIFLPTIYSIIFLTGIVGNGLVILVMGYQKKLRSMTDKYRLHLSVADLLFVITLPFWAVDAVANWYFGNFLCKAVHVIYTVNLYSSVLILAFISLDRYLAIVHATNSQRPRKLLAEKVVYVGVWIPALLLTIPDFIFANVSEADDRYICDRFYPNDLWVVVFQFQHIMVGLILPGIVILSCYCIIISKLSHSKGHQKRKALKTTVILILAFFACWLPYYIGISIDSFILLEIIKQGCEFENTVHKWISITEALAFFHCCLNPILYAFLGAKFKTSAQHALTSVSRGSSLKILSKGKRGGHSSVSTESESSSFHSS

Compound	CLiv, human (allometric scaled) [1]	IC50 (CXCR4 receptor)	Plasma stability human pl. T1/2 [2]	Plasma stability mouse pl. T1/2 [3]	Hemolysis at 100 µM [4]
CC(C)NCCCC[C@@H]1NC(=O)[C@H](CCC(N)=O)NC(=O)[C@H](Cc2ccc(O)cc2)NC(=O)[C@@H]2CSSC[C@H](NC(=O)[C@H](C)NC(=O)[C@H](Cc3c[nH]cn3)NC(=O)[C@H](Cc3ccc(O)cc3)NC(=O)[C@@H]3CCCN3C(=O)[C@H]3CCCN3C1=O)C(=O)N[C@@H](CO)C(=O)N[C@@H](C)C(=O)N[C@H](Cc1ccc(O)cc1)C(=O)N[C@@H](CCN)C(=O)N[C@@H](CCCNC(=N)N)C(=O)N[C@@H](Cc1ccc(O)cc1)C(=O)N2 [Ex. 3, cyclo(-Tyr^1-His^2-Ala^3-Cys^4-Ser^5-Ala^6-^DTyr^7-Dab^8-Arg^9-Tyr^10-Cys^11-Tyr^12-Gln^13-Lys(iPr)^14-^DPro^15-Pro^16-), disulfide bond between Cys^4 and Cys^11] (cyclo(YHACSA[dY][Dab]RYCYQ[Lys(iPr)][dP]P); disulfide 4-11)	141 mL/h/kg	0.11 ± 0.01 nM	1440 min	1440 min	1.0%
CC(C)NCCCC[C@@H]1NC(=O)[C@H](CCC(N)=O)NC(=O)[C@H](Cc2ccc(O)cc2)NC(=O)[C@@H]2CSSC[C@H](NC(=O)[C@H](Cc3ccc(O)cc3)NC(=O)[C@H](Cc3c[nH]cn3)NC(=O)[C@H](Cc3ccc(O)cc3)NC(=O)[C@@H]3CCCN3C(=O)[C@H]3CCCN3C1=O)C(=O)N[C@@H](CO)C(=O)N[C@@H](C)C(=O)N[C@H](Cc1ccc(O)cc1)C(=O)N[C@@H](CCCNC(C)C)C(=O)N[C@@H](CCCNC(=N)N)C(=O)N[C@@H](Cc1ccc(O)cc1)C(=O)N2 [Ex. 5, cyclo(-Tyr^1-His^2-Tyr^3-Cys^4-Ser^5-Ala^6-^DTyr^7-Orn(iPr)^8-Arg^9-Tyr^10-Cys^11-Tyr^12-Gln^13-Lys(iPr)^14-^DPro^15-Pro^16-), disulfide bond between Cys^4 and Cys^11] (cyclo(YHYCSA[dY][Orn(iPr)]RYCYQ[Lys(iPr)][dP]P); disulfide 4-11)	106 mL/h/kg	0.43 ± 0.24 nM	1440 min	1440 min	3.5%
